{"source": "ChEMBL document CHEMBL1122977", "about": "“A new class of cardiotonic agents: structure-activity correlations for natural and synthetic analogues of the alkaloid A new class of A new class of cardiotonic agents: structure-activity correlations for natural and synthetic analogues of the alkaloid pumiliotoxin B …” (J Med Chem, 1985)", "settings_in_all_cases": "Cardiac atrium", "key": {"[1]": {"species": "Cavia porcellus", "experiment": "Effect on force of atrial contractions induced by PTX-B in guinea pig", "type": "functional, organism-based"}, "[2]": {"species": "Cavia porcellus", "experiment": "Effect on rate of atrial contractions induced by PTX-B in guinea pig", "type": "functional, organism-based"}, "[3]": {"species": "Cavia porcellus", "experiment": "Effect on rate of atrial contractions induced by PTX-B in guinea pig (control value)", "type": "functional, organism-based"}, "[4]": {"species": "Cavia porcellus", "experiment": "Effect on force of atrial contractions induced by PTX-B in guinea pig (control value)", "type": "functional"}}}
{"smiles": "COC(=O)C1=C(C)NC(C)=C(C(=O)OC)C1c1ccccc1[N+](=O)[O-]", "note": "[NIFEDIPINE]", "values": [{"measurement": "IC50", "setting": "[1]", "value": 6, "unit": "µM"}, {"measurement": "IC50", "setting": "[2]", "value": 12, "unit": "µM"}, {"measurement": "IC50", "setting": "[3]", "value": 0.6, "unit": "µM"}, {"measurement": "IC50", "setting": "[4]", "value": 0.4, "unit": "µM"}]}
{"smiles": "COc1ccc(CCN(C)CCCC(C#N)(c2ccc(OC)c(OC)c2)C(C)C)cc1OC", "note": "(stereo not drawn) [VERAPAMIL]", "values": [{"measurement": "IC50", "setting": "[1]", "value": 10, "unit": "µM"}, {"measurement": "IC50", "setting": "[2]", "value": 16, "unit": "µM"}, {"measurement": "IC50", "setting": "[3]", "value": 0.7, "unit": "µM"}, {"measurement": "IC50", "setting": "[4]", "value": 0.8, "unit": "µM"}]}
